In US20050042283A1, “Histamine and CCK2/gastrin receptor blockade in the treatment of acid-peptic disease and cancer” (UNIVERSITY OF MASSACHUSETTS, priority 2003, published 2005):
Several values for one entry are separate records, joined by “and”; a condition that tells them apart may be missing. Equal entries are not always repeated.

Legend:
Reg I = assay: Real-time RT-PCR of growth factor expression: Reg I; assay type: in vivo; details: quantitative real-time PCR; versus non drug treated mice
Method: (§1) Real-time RT-PCR assay of growth factors and cytokine expression profiles Total RNAs were extracted from a sample of whole stomach from each animal with Trizol (Invitrogen, Calif.) and five micrograms of total RNA were used for first strand cDNA synthesis using Superscript II cDNA amplification System (Invitrogen, Calif.) following manufacturer's instructions. Real-time PCR was performed as above using RT-PCR primers for each gene as listed below. All primers were designed using Lasergene ver5.0 software (DNASTAR inc., Madison, Wis.). Results were calculated by minus delta delta threshold cycle (-ΔΔCt) method (Livak, K. J. et al., 2001). Briefly, the threshold cycle Ct1 of each sample reaction was deducted from the threshold cycle Ct2 of GAPDH reaction for normalization, and then deducted from the threshold cycle Ct3 of calibration control (45 cycles in this experiment), i.e., the final result was represented by the formula; Ct3-(Ct1-Ct2). […]

TNF-alpha = assay: Real-time RT-PCR of cytokine expression: TNF-alpha; assay type: in vivo; details: 6 months, versus untreated mice
Method: as §1

[1] = test system: COOH-terminally amidated gastrin; assay: Gastrin radioimmunoassay (serum amidated gastrin); assay type: in vivo, mice; details: 6 months treatment
Method: Plasma gastrin levels (COOH-terminally amidated gastrin) were determined by radioimmunoassay using rabbit antiserum L2 that reacts similarly with G17 and […]. Real-time PCR Assay of Helicobacter felis infection in mouse stomachs and RT-PCR assay of growth factors and cytokine expression profiles H.felis DNA present in infected mouse stomachs was quantified using a modification of a previously described realtime PCR assay that accurately quantified H. pylori (Ge, Z. et al., 2001). Two primers (forward: 5′-[…] -3′ (SEQ ID NO:1); reverse: 5′-[…]-3′(SEQ ID NO:2) were designed to hybridize within the conserved region of the single copy H. felis flaB gene locus. No products were amplified from DNA isolated from H. pylori, H. mustelae, or H. bizzozeroni, confirming the specificity of these oligonucleotides for H. felis. DNA from plate-grown H. felis and from mouse gastric corpus was prepared using a high pure PCR kit (Roche Molecular Biochemicals, Indianapolis, IN). Real-time PCR was performed using SmartCycler (Cepheid, Calif.) and Quantitect SYBR Green PCR kit (QIAGEN Inc., Valencia, Calif.) following the manufacturer's instructions. Briefly, the PCR assay was performed under the following conditions: 95° C. for 15 minutes followed by 45 cycles of 95° C. for 15 seconds, 55° C. for 30 seconds and 72° C. for 30 seconds. […]

IFN-gamma = assay: Real-time RT-PCR of cytokine expression: IFN-gamma; assay type: in vivo; details: 6 months, versus untreated mice
Method: as §1

[2] = test system: H. felis-infected INS-GAS mice; assay: Maximal gastric acid output by pyloric ligation; assay type: in vivo; details: 3 months treatment; for Reduction of gastric acid output: acid secretion over 4 hours
Method: (§2) Mice in group III were treated orally with the histamine H2 receptor antagonist loxtidine (in drinking water) at a dose of 0.5 g/L, while group IV mice received both drugs. For the 3 months drug study of inhibitory effects on maximal acid secretion, gastric atrophy, hyperplasia and dysplasia, 8 mice were prepared for each group. For the 6 months drug study of inhibitory effects on gastric carcinogenesis, 17 mice were prepared for each group.
The pyloric ligation method was used to measure maximal acid secretion as previously described (Chen, D. et al., 2004). Briefly, mice were fasted overnight and anesthetized by isoflurane inhalation. The abdomen was incised by midline celiotomy, the pylorus ligated firmly, and the abdomen closed with surgical sutures. After 4 hours, the mice were euthanized and gastric juice collected. The acidity of gastric juice was measured with a pH meter (AR 25; Fisher Scientific, Houston, Tex.) by 0.01 N NaOH titration and results expressed as μEq.

[3] = test system: enterochromaffin-like (ECL) cell; assay: Gastric histology of loxtidine-treated South African rat; assay type: in vivo, Mastomys (African multimammate rat); details: treated for 16 weeks
From the text: FIG. 2: Characteristics of loxtidine.

[4] = test system: H. felis-infected INS-GAS mice; assay: Stomach wet-weight and gross stomach size; assay type: in vivo
From the text: The control group (A) included INS-GAS mice that were infected with H. felis but untreated, resulting in a total of 4 groups of mice (A-D). The INS-GAS (male) mice entered the study at 6-8 weeks of age, and were housed in 4 cages. There were 21 mice in each group, seven of which were euthanized after 3 months and 14 of which were euthanized after 6-7 months. The doses of medication are shown. Loxtidine was given in the drinking water while YF476 was given by subcutaneous injection once a week.
FIG. 4: Closed stomachs from INS-GAS/H. felis mice. Gross photos of representative stomachs from each of the four groups of 6 month H. felis-infected INS-GAS mice are shown. Mice were euthanized by CO2 inhalation and the stomachs were removed by […] of the esophagus and duodenum.
as §2

ECL cell = details: cited from earlier work

## 1-methyl-5-((3-(3-(1-piperidinylmethyl)phenoxy)propyl)amino)-1H-1,2,4-triazole-3-ethanol [Loxtidine]
Reg I
  Reg I expression level: markedly reduced
TNF-alpha; listed as Loxtidine alone
  TNF-alpha expression level: significantly lower level
TNF-alpha; listed as loxtidine alone
  TNF-alpha expression level: significantly down-regulated
[1]
  Serum amidated gastrin levels compared with untreated mice: no significant, but in a higher tendency
[1]; listed as loxtidine alone
  Serum amidated gastrin levels compared with untreated mice: tendency toward higher gastrins that was not significant
IFN-gamma; listed as Loxtidine alone
  IFN-gamma expression level: significantly lower level
IFN-gamma; listed as loxtidine alone
  IFN-gamma expression level: significantly down-regulated
[2]
  Maximal gastric acid output (MAO), effect in words: significantly inhibited
  Reduction of gastric acid output: 80%
[2]; listed as loxtidine
  Reduction of gastric acid output: 83%
[3]
  Gastric histology finding: enterochromaffin-like (ECL) cell neoplasia
[4]; 6 month H. felis-infected mice
  Gross stomach size: significant reduction in apparent size
[4]; untreated 1831 / ~1830 mg
  Stomach weight after treatment: ~400 mg and ~800 mg
ECL cell; rat, in vivo
  Tumor induction in rats: induction of ECLomas
ECL cell; rats, Poynter et al.
  Duration of administration after which ECL cell hyperplasia was seen: 39 days
